Assays:
PLCγ1^wt = molecular target: T1, PLCγ1^wt (Homo sapiens, UniProt P19174, I813T); experiment: Saturation transfer difference (STD) NMR binding; details: STD amplification factor vs ADP concentration; likely an overestimate; read-out: Kd, STD-NMR, H2 resonance
T1 construct: specific activities of PLCγ1^wt and PLCγ2^wt full-length proteins; made in house; host or cells: Escherichia coli T7 Express lysY/Iq
T1 sequence (P19174 1-1291 isoform P19174-2 I813T): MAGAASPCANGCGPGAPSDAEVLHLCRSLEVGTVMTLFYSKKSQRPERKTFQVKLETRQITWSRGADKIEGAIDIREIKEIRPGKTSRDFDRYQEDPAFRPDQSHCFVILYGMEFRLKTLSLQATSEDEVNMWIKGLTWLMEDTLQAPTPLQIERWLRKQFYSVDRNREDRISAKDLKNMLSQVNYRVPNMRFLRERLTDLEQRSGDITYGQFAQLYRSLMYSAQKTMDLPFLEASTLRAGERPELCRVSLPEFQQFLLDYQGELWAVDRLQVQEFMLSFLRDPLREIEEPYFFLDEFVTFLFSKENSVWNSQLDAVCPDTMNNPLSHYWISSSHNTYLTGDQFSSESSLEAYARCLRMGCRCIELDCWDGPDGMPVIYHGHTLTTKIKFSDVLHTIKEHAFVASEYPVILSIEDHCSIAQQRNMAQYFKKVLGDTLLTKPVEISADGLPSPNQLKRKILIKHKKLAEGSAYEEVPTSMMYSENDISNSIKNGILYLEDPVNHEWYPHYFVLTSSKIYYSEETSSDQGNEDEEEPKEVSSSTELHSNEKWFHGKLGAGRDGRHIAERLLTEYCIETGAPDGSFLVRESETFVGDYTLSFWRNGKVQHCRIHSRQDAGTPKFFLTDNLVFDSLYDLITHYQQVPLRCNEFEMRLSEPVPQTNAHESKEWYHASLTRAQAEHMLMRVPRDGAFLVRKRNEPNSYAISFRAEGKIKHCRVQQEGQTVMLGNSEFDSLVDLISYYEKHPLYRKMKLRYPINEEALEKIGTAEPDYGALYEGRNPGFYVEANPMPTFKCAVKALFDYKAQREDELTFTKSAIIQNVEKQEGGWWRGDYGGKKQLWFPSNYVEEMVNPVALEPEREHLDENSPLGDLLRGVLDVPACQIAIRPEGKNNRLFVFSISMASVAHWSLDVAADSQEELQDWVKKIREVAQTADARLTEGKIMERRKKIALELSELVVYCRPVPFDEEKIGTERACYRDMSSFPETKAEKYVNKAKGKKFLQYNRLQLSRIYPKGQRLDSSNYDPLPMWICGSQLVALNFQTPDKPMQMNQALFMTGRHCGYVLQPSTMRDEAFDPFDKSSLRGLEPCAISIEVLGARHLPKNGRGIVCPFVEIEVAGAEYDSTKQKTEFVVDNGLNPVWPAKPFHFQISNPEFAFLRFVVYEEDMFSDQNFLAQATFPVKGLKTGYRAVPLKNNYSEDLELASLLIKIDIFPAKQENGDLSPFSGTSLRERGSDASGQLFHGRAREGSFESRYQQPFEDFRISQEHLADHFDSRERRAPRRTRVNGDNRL
Method: Protein was buffer exchanged into phosphate buffered saline (pH 7.5) prepared in deuterium oxide. A 10 mM stock of ultrapure ADP was purchased from Promega. NMR spectra were acquired at 293 K in a Bruker Avance Neo 600 MHz spectrometer equipped with QCI-F cryoprobe and operating Topspin 4.2. Saturation transfer difference NMR experiments (stddiffesgp.3) were acquired with 2 s saturation at 0.75 and 50 ppm using 50 ms Gaussian pulses. For the determination of Kd, ADP was added to the protein at ligand excesses from 5- to 100-fold. The protein concentration was 10 µM. STD amplification factors, AF=L0/P0⋅Iref−Isat/Iref , were measured and fitted to a hyperbolic dose-response model to determine the dissociation constant for the protein/ADP interaction.

PLCβ2 = molecular target: T2, PLCβ2 (Homo sapiens, UniProt Q00722); experiment: PLC activity assay 1 (A1), PLCβ2; type: biochemical; details: substrate in solution or in lipid vesicles (Figure 3C, D); except small changes at very high concentration
T2 construct: made in house; host or cells: Escherichia coli T7 Express lysY/Iq
Method: (§1) The effect of nucleotide inhibition on PLC activity was measured using either a membrane-based assay with the fluorescent substrate (XY-69) incorporated into liposomes or using a small soluble substrate, Aldol 518 myo-inositol-1-phosphate (Aldol). Both methods utilised the same PLC assay buffer [20 mM Hepes-KOH, 70 mM KCl, 3 mM EGTA, 2.97 mM CaCl2, 2 mM TCEP and fatty acid-free bovine serum albumin (FAF-BSA; 50 μg/ml) (pH 7.5)]. Both assays were performed in low volume black 384-well plates (Greiner Bio-One), were composed of a final assay volume of 20 μl and were monitored in a Clariostar plate reader (BMG Labtech). The Aldol assay consisted of 4 μl of a serial dilution of ATP/ADP in assay buffer, 8 μl of PLC protein (concentration varied between PLC variants), and 8 μl of Aldol 518 myo-inositol-1-phosphate (final concentration in assay, 50 μM). […]
(§2) The XY-69 assay contained 4 μl of a serial dilution of ATP/ADP in assay buffer, 4 μl of PLC protein (concentration varied between PLC variants), and 12 μl of XY69 liposomes (final concentration in assay 1.2 mg/ml). A CLARIOstar plate reader (BMG Labtech) was used to measure the production of the fluorescent product. […] The initial linear rate of product generation was calculated and converted to a % inhibition when compared with the rate of PLC activity in the absence of nucleotide. […]

PLCγ2^wt = experiment: PLC activity assay 1 (A1), PLCγ2; type: biochemical, human; details: assay using liposomes (A1)
Method: as §1, §2

PLCδ1 = molecular target: T3, PLCδ1 (Homo sapiens, UniProt P51178); experiment: PLC activity assay 1 (A1), PLCδ1; type: biochemical; details: substrate in solution or in lipid vesicles (Figure 3C, D); except small changes at very high concentration
T3 construct: made in house; host or cells: Escherichia coli T7 Express lysY/Iq
T3 sequence (P51178 1-756): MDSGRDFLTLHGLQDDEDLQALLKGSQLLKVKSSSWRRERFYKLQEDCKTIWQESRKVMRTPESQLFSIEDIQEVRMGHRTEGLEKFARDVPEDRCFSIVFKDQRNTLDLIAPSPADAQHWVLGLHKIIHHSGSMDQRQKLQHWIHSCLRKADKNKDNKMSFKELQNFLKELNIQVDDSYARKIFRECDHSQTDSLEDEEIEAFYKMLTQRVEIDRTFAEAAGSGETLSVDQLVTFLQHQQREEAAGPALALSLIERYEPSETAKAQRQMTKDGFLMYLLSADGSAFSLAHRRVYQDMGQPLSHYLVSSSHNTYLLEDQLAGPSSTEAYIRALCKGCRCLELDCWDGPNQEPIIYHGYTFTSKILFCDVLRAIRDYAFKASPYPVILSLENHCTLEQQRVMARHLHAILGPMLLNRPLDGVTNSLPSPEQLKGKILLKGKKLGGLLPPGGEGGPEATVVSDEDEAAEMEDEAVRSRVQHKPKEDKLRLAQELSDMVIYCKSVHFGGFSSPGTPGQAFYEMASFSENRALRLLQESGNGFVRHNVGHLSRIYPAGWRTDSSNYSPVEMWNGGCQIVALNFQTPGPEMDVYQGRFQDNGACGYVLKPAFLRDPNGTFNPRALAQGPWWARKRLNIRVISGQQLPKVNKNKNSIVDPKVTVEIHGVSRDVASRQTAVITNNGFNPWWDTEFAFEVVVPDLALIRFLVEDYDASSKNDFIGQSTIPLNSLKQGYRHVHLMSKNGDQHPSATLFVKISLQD
Method: as §1, §2

T2 sequence (Q00722 whole entry, species assumed): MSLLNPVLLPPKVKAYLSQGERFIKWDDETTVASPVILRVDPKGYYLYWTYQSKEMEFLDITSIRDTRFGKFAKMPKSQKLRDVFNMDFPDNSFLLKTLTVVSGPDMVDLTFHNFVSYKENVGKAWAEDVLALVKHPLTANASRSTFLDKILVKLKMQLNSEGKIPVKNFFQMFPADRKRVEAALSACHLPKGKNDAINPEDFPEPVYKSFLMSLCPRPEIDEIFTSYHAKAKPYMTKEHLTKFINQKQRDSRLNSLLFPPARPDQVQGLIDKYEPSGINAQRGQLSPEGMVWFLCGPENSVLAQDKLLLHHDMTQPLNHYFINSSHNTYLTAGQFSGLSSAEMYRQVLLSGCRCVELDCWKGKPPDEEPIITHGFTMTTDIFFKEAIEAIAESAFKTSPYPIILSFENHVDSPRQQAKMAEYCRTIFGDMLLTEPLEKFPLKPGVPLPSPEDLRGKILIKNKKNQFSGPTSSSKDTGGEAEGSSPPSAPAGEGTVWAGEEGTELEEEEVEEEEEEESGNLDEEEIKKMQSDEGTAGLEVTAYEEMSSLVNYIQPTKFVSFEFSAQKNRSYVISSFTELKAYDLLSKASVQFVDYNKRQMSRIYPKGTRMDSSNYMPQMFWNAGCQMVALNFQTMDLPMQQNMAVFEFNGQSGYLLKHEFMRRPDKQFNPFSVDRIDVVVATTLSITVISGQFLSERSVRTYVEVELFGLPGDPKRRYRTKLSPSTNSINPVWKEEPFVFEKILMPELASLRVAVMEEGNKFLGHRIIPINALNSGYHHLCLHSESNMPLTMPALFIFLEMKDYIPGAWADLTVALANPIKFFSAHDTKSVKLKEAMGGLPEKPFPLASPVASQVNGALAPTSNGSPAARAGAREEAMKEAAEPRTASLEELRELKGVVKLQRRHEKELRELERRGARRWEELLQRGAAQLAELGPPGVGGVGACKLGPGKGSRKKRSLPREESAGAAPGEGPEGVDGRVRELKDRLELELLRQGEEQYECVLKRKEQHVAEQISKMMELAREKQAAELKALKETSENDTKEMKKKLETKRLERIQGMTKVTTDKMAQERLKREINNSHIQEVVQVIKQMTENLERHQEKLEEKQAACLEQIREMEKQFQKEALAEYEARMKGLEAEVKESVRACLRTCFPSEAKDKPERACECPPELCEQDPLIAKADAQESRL

Row | Kd (PLCγ1^wt) [µM] | effect on PLC activity of PLCβ2 (PLCβ2) | IC50 of PLCγ2^wt relative to PLCγ1^wt (fold higher) (PLCγ2^wt) | effect on PLC activity of PLCδ1 (PLCδ1) | Compound
1 | ~196 | not affected | 1.5- to 40 fold | not affected | Nc1ncnc2c1ncn2[C@@H]1O[C@H](COP(=O)(O)OP(=O)(O)O)[C@@H](O)[C@H]1O [ADP]
2 | – | not affected | – | not affected | Nc1ncnc2c1ncn2[C@@H]1O[C@H](COP(=O)(O)OP(=O)(O)OP(=O)(O)O)[C@@H](O)[C@H]1O [ATP]
